From US20220323425A1, “CO-POTENTIATORS FOR THERAPY OF CYSTIC FIBROSIS CAUSED BY MINIMAL FUNCTION CFTR MUTANTS” (THE REGENTS OF THE UNIVERSITY OF CALIFORNIA, priority 2019, published 2022)
Like-named read-outs stand apart in the source and are kept apart here.

Experiments:
Type in all cases: cell-based
W1282X-CFTR = target: T1, W1282X-CFTR (Homo sapiens, UniProt P13569); assay: Structure-activity testing of co-potentiator analogs in FRT cells expressing W1282X-CFTR; details: for Relative Vmax (%)*: 100% Vmax corresponds to 20 μM ASP-11; for EC50: FRT cells expressing W1282X-CFTR
T1 construct: CFTR1281 (the truncation product generated by W1282X-CFTR); expressed in transfected cells
T1 sequence (P13569 1-1281 limits assumed): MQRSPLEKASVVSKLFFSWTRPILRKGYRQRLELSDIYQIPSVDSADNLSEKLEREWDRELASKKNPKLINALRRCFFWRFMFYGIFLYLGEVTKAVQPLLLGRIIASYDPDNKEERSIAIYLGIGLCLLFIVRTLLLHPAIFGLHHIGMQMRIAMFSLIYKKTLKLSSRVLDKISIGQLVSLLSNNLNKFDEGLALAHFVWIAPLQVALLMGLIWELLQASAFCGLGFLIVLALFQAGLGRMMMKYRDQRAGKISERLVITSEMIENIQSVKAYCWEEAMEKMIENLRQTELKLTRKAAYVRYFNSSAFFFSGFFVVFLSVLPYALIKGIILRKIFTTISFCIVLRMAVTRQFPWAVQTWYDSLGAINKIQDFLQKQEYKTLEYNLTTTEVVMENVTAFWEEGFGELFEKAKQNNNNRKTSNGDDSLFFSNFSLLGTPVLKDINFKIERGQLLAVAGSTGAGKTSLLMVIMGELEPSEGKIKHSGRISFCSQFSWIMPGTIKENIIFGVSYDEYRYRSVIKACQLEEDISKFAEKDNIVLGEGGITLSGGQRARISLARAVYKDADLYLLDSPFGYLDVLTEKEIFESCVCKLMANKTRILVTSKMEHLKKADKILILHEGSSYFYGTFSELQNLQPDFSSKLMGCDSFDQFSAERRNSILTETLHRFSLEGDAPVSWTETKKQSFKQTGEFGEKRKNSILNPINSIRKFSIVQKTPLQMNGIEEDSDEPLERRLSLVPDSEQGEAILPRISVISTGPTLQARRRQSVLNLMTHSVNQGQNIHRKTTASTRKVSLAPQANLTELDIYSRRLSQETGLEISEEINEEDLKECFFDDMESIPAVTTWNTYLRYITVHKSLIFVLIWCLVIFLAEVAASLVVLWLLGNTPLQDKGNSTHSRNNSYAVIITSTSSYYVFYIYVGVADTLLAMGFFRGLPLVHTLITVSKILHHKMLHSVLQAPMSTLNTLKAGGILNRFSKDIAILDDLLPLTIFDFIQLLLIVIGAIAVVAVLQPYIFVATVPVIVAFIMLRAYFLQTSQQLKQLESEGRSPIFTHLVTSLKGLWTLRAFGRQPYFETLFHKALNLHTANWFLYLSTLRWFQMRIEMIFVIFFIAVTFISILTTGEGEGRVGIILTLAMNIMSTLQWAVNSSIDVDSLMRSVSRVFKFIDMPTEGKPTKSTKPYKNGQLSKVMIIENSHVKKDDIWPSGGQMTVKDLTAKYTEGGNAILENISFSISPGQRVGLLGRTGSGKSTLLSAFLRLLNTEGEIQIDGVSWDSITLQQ
Experimental: To establish structure-activity relationships, 240 commercially available spiro[piperidine-4,1pyrido[3,4-b]indoles]analogs and 160 pyrazoloquinoline analogs were tested in FRT cells expressing W 1282X-CFTR. FIG. 5A summarizes the structural determinants for activity for the spiro[piperidine-4,1pyrido[3,4-b]indoles] reported in Table 1A (CP-Axxx designations).
High-throughput screening used a semi-automated screening platform (Beckman, Fullerton, Calif.) as described (Haggie, 2017). FRT cells expressing W1282X and YFP were plated in 96-well black-walled, clear-bottom tissue culture plates (Corning) at a density of 20,000 cells/well and grown for 24 h at 37° C. to ˜90% confluency. Cells were treated with 3 μM VX-809 for 24 hours. Cells were then washed twice with PBS, and incubated in 100 μl of PBS containing forskolin (10 μM), VX-770 (15 nM) and test compounds (25 μM) for 10 min prior to assay of CFTR activity. All plates contained wells with positive (5 μM VX-770+20 μM ASP-11) and negative (5 μM VX-770) controls. Assays were done using a BMG Labtech FLUOstar OMEGA plate reader (Cary, N.C.) over 12 s with initial fluorescence intensity recorded for 2 s prior to addition of 100 μl of NaI-substituted PBS (137 mM NaCl replaced with NaI). Initial iodide influx was computed from fluorescence intensity by single exponential regression. […]
(§1) GraphPad Prism software (GraphPad Inc., San Diego, Calif., USA) was used for statistical analysis. EC50 values were determined by non-linear regression to a single-site inhibition model. Statistical significance was determined using unpaired Student's t test, with P<0.05 considered significant.

N1303K-CFTR = N1303K-CFTR (Homo sapiens, UniProt P13569, N1303K); assay: Short-circuit current in FRT cells expressing N1303K-CFTR; parameters: expressed in transfected cells; host or cells: Fischer rat thyroid (FRT) cells; details: for EC50 / Relative Vmax (%)*: Table 1B; for EC50: cell line not given; for Relative Vmax (%)*: footnote to * not given; for short-circuit current response when added after VX-770: 20 μM forskolin, 5 μM VX-770, 20 μM test potentiator
N1303K-CFTR, sequence (P13569 whole entry N1303K): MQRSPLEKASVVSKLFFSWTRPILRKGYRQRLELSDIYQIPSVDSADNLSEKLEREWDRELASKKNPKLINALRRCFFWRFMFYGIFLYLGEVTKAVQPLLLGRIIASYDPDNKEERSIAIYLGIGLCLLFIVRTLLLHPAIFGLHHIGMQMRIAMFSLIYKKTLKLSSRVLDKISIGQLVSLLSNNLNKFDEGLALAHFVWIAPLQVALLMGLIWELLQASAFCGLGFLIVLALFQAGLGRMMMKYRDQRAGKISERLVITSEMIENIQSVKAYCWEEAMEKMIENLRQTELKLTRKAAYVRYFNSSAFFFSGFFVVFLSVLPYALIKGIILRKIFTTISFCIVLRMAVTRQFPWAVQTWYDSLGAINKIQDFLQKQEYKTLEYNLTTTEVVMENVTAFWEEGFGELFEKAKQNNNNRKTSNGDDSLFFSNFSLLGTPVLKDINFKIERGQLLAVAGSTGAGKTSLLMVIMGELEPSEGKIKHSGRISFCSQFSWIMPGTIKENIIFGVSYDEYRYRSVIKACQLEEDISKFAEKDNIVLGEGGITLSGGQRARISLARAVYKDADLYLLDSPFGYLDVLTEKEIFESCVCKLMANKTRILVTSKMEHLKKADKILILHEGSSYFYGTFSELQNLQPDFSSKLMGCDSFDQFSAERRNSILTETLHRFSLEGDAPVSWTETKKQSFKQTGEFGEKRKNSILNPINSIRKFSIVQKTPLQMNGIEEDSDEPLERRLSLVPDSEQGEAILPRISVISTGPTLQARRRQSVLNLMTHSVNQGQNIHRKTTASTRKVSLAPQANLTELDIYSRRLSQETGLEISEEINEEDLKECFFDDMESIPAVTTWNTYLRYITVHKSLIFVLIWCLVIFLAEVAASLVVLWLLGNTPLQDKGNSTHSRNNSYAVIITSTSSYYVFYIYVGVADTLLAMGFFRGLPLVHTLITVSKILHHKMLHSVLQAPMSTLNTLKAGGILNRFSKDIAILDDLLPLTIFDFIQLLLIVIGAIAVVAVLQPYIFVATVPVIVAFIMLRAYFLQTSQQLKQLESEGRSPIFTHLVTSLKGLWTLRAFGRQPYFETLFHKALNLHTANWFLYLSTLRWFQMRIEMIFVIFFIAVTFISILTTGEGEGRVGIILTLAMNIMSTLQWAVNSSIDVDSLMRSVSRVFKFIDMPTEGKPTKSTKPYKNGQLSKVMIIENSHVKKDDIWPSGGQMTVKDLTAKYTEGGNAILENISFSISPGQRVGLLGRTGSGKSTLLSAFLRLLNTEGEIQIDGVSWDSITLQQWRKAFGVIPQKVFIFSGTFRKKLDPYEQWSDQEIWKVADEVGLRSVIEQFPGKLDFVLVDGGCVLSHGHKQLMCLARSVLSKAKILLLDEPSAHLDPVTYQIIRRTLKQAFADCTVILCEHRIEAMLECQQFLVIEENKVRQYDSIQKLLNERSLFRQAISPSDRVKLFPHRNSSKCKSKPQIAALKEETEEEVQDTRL
Experimental: (§2) Short-circuit current was measured on cells cultured on permeable supports (Corning) as described (Haggie, 2017; Phuan, 2018). For FRT cells, the basolateral membrane was permeabilized with 250 μg/mL amphotericin B, and experiments were done using a HCO3^−-buffered system (in mM: 120 NaCl, 5 KCl, 1 MgCl2, 1 CaCl2), 5 Hepes, 25 NaHCO3, 10 glucose, pH 7.4) with a basolateral to apical chloride gradient (60 mM NaCl replaced by sodium gluconate in the apical solution). For human airway epithelial cells, symmetrical HCO3^−-buffered solutions (containing 120 mM NaCl) were used. Cells were equilibrated with 95% O2, 5% CO2 and maintained at 37° C. Hemichambers were connected to a DVC-1000 voltage clamp (World Precision Instruments Inc., Sarasota, Fla.) via Ag/AgCl electrodes and 3 M KCl agar bridges for recording of the short-circuit current.
as §1
Co-potentiator efficacy was initially determined by short-circuit current measurements in FRT cells expressing N1303K-CFTR in the presence of a transepithelial chloride gradient and with permeabilization of the basolateral cell membrane such that measured current directly reports CFTR channel activity. […] We previously defined potentiators as either class I compounds, including VX-770 and GLPG1837, or class II compounds such as the arylsulphonamide-pyrrolopyridine and spiro[piperidine-4,1-pyrido[3,4-b]indole] copotentiators that probably bind at distinct sites on CFTR. N1303K-CFTR expressing FRT cells treated with forskolin and GLPG1837 had similar 2i co-potentiator EC50 of 0.8±0.2 μM (FIG. 7B).

Q1313X-CFTR = target: T2, Q1313X-CFTR (Homo sapiens, UniProt P13569); assay: Short-circuit current in FRT cells expressing Q1313X-CFTR; details: 20 μM forskolin; for short-circuit current response when added after VX-770: 5 μM VX-770, 25 μM apigenin, others 20 μM
T2 construct: several truncated forms of CFTR resulting from premature termination codons (PTCs) located in NBD2; expressed in transfected cells; host or cells: FRT cells, pIRESpuro3 vector, puromycin-selected clonal lines
T2 sequence (P13569 1-1312 limits assumed): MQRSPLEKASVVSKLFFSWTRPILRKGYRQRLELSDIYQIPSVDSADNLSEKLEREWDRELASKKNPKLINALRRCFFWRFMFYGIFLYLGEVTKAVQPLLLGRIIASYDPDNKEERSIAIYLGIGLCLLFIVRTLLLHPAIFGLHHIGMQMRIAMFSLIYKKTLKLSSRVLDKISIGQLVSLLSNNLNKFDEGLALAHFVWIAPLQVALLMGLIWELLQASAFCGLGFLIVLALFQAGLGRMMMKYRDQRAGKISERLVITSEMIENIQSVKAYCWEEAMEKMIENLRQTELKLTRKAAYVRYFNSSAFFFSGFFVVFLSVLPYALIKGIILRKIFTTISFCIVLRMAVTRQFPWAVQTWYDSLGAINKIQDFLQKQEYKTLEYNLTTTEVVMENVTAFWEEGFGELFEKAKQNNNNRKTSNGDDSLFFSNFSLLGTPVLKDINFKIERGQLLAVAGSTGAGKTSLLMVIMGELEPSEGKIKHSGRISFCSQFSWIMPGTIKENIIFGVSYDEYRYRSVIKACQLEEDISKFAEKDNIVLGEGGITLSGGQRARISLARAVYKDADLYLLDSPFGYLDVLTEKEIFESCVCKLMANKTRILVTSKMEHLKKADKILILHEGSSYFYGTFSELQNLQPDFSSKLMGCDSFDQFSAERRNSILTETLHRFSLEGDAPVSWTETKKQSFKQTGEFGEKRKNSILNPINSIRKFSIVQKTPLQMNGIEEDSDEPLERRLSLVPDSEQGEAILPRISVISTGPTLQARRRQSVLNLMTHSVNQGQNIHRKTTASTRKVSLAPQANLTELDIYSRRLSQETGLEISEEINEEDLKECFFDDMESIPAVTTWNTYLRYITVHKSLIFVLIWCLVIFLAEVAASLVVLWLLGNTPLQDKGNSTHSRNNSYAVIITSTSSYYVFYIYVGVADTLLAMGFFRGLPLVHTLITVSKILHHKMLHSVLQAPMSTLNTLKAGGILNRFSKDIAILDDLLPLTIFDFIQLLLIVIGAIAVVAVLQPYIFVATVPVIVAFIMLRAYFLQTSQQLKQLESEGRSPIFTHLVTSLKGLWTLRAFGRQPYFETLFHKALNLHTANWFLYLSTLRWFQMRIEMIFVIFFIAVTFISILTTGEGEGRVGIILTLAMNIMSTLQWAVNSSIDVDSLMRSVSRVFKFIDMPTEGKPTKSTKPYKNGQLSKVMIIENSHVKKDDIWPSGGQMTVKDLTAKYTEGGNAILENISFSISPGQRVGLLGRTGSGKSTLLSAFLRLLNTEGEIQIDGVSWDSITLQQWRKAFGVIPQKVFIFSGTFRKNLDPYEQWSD
Experimental: as §2, §1

Row | Relative Vmax (%)* (W1282X-CFTR; Table 1A) | EC50 (W1282X-CFTR; Table 1A, read-out: EC50 (μM))) | Relative Vmax (%)* (W1282X-CFTR; Table 2) | EC50 (W1282X-CFTR; Table 2, read-out: EC50) | Compound | also measured
1 | −4% | > 30 µM |  |  | O=C(c1ccccc1)N1CCC2(CC1)NCCc1c2[nH]c2ccccc12 [Compound A815] | 
2 |  |  | 1% | > 30 µM | COc1ccc2cc3c(N)nn(C(=O)Cc4ccc([N+](=O)[O-])cc4)c3nc2c1 [Compound D035] | 
3 |  |  | 100% | 1.7 µM | COc1ccc2cc3c(N)nn(C(=O)c4ccc([N+](=O)[O-])cc4Cl)c3nc2c1 [Compound D038] | 
4 | 7% | > 30 µM |  |  | COc1ccc2[nH]c3c(c2c1)CCNC31CCN(S(C)(=O)=O)CC1 [Compound A145] | 
5 |  |  | 3% | > 30 µM | COc1ccc2cc3c(N)nn(C(=O)c4cc(OC)c(OC)c(OC)c4)c3nc2c1 [Compound D012] | 
6 | 7% | > 30 µM |  |  | CCC(=O)N1CCC2(CC1)NCCc1c2[nH]c2ccc(OC)cc12 [Compound A350] | 
7 |  |  |  |  | COc1ccc2[nH]c3c(c2c1)CCNC31CCN(Cc2cc(F)c(F)c(F)c2)CC1 [Compound 2d, 6′-Methoxy-1-(3,4,5-trifluorobenzyl)-2′,3′,4′,9′-tetrahydrospiro[piperidine-4,1′-pyrido[3,4-b]indole]] | EC50 (N1303K-CFTR): 2600 nM; Relative Vmax (%)* (N1303K-CFTR): 121%
8 |  |  | 3% | > 30 µM | COc1ccc2cc3c(N)nn(C(=O)c4ccc([N+](=O)[O-])c(C)c4)c3nc2c1 [Compound D025] | 
9 |  |  |  |  | O=c1cc(-c2ccc(O)cc2)oc2cc(O)cc(O)c12 [apigenin] | short-circuit current response when added after VX-770 (Q1313X-CFTR): showed synergy; short-circuit current response when added after GLPG1837 (Q1313X-CFTR; 20 μM GLPG1837): showed synergy
10 |  |  | 21% | 3.4 µM | COc1ccc2nc3c(cc2c1)c(N)nn3C(=O)c1ccc([N+](=O)[O-])cc1Cl [Compound D138] | 
11 | 100% | 2.6 µM |  |  | COc1ccc2[nH]c3c(c2c1)CCNC31CCN(Cc2ccc(F)c(F)c2)CC1 [Compound A662] | 
12 | 18% | > 30 µM |  |  | COc1ccc2[nH]c3c(c2c1)CCNC31CCN(C2CCCCC2)CC1 [Compound A714] | 
13 |  |  | 11% | > 30 µM | COc1ccc2cc3c(N)nn(C(=O)c4ccc(Cl)c([N+](=O)[O-])c4)c3nc2c1 [Compound D036] | 
14 |  |  |  |  | COc1ccc2[nH]c3c(c2c1)CCNC31CCN(Cc2ccc(F)c(F)c2F)CC1 [Compound 2g, 6′-Methoxy-1-(2,3,4-trifluorobenzyl)-2′,3′,4′,9′-tetrahydrospiro[piperidine-4,1′-pyrido[3,4-b]indole]] | EC50 (N1303K-CFTR): 4100 nM; Relative Vmax (%)* (N1303K-CFTR): 100%
15 |  |  | 24% | 3.6 µM | COc1ccc2cc3c(N)nn(C(=O)c4ccc(F)cc4)c3nc2c1 [Compound D010] | 
16 |  |  | 92% | 2.4 µM | COc1ccc2cc3c(N)nn(C(=O)c4ccc(F)cc4Cl)c3nc2c1 [Compound D018] | 

Row | Relative Vmax (%)* (W1282X-CFTR; Table 1A) | EC50 (W1282X-CFTR; Table 1A, read-out: EC50 (μM))) | Relative Vmax (%)* (W1282X-CFTR; Table 2) | EC50 (W1282X-CFTR; Table 2, read-out: EC50) | Compound | also measured
17 |  |  |  |  | COc1ccc2[nH]c3c(c2c1)CCNC31CCN(Cc2c(F)c(F)c(F)c(F)c2F)CC1 [Compound 2e, 6′-Methoxy-1-((perfluorophenyl)methyl)-2′,3′,4′,9′-tetrahydrospiro[piperidine-4,1′-pyrido[3,4-b]indole]] | EC50 (N1303K-CFTR): 2100 nM; Relative Vmax (%)* (N1303K-CFTR): 134%
18 | 91% | 5.1 µM |  |  | COc1ccc2[nH]c3c(c2c1)CCNC31CCN(Cc2scnc2C)CC1 [Compound A666] | 
19 | 31% | 16 µM |  |  | c1ccc(CN2CCC3(CC2)NCCc2c3[nH]c3ccccc23)cc1 [Compound A357] | 
20 |  |  |  |  | Fc1ccc(CN2CCC3(CC2)NCCc2c3[nH]c3ccc(Cl)cc23)c(F)c1 [Compound 5c, 6′-Chloro-1-(2,4-difluorobenzyl)-2′,3′,4′,9′-tetrahydrospiro[piperidine-4,1′-pyrido[3,4-b]indole]] | EC50 (N1303K-CFTR): 2500 nM; Relative Vmax (%)* (N1303K-CFTR): 89%
21 |  |  |  |  | COc1ccc2[nH]c3c(c2c1)CCNC31CCN(Cc2ccc(F)c(Cl)c2F)CC1 [Compound 1j, 1-(3-Chloro-2,4-difluorobenzyl)-6′-methoxy-2′,3′,4′,9′-tetrahydrospiro[piperidine-4,1′-pyrido[3,4-b]indole]] | EC50 (N1303K-CFTR): 4500 nM; Relative Vmax (%)* (N1303K-CFTR): 120%
22 | 6% | > 30 µM |  |  | COc1ccc2[nH]c3c(c2c1)CCNC31CCN(C)CC1 [Compound A764] | 
23 | 6% | > 30 µM |  |  | COc1ccc2[nH]c3c(c2c1)CCNC31CCN(C(=O)Cc2ccccc2)CC1 [Compound A956] | 
24 | 4% | > 30 µM |  |  | COc1cccc(CN2CCC3(CC2)c2[nH]c4ccccc4c2CCN3C)c1 [Compound A600] | 
25 |  |  |  |  | COc1ccc2c3c([nH]c2c1)C1(CCN(Cc2ccc(F)cc2F)CC1)NCC3 [Compound 5d, 1-(2,4-Difluorobenzyl)-7′-methoxy-2′,3′,4′,9′-tetrahydrospiro[piperidine-4,1′-pyrido[3,4-b]indole]] | EC50 (N1303K-CFTR): 2400 nM; Relative Vmax (%)* (N1303K-CFTR): 100%
26 |  |  | 3% | > 30 µM | COc1ccc2cc3c(N)nn(C(=O)Cc4ccc([N+](=O)[O-])cc4)c3nc2c1 [Compound D086] | 
27 |  |  | 1% | > 30 µM | COc1ccc2cc3c(N)nn(C(=O)c4ccncc4)c3nc2c1 [Compound D003] | 
28 |  |  |  |  | CC(C)c1ccc(NC(=O)C(c2ccccc2)N(C)C(=O)Cc2c[nH]c3ccccc23)cc1 (centres unmarked) [Compound P2, N-methyl-N-[2-[[4-(1-methylethyl)phenyl]amino]-2-oxo-1-phenylethyl]-1H-indole-3-acetamide, reference compound] | short-circuit current response when added after VX-770 (N1303K-CFTR): did not further increase current; short-circuit current response when added after VX-770 (Q1313X-CFTR): did not elevate current
29 |  |  | 11% | 18 µM | Cc1ccc2cc3c(N)nn(C(=O)c4ccc(F)cc4)c3nc2c1 [Compound D136] | 
30 |  |  |  |  | Cc1cc(C)cc(N(Cc2ccc(Cl)cc2)S(=O)(=O)c2cccn3c(C)nnc23)c1 [W1282Xpot-C01, reference compound] | short-circuit current response when added after VX-770 (N1303K-CFTR): activated N1303K-CFTR; activation by two Class II potentiators added together (N1303K-CFTR; W1282Xpot-C01 and ASP-11, 20 μM each, no Class I potentiator): little activation
31 | 24% | 13 µM |  |  | COc1cccc(CN2CCC3(CC2)NCCc2c3[nH]c3ccccc23)c1 [Compound A534] | 
